Measurements published in PubChem BioAssay AID330 (DTP/NCI, 2004).
Where “and” joins values, the source holds several entries; their conditions need not be identical. Equal values may be shown once. Inconclusive results and toxic doses are left out.

System: P388 leukemia ip, CD2F1 mice, survival T/C
Test: NCI In Vivo Anticancer Drug Screen. Data for tumor model P388 Leukemia (intraperitoneal) in CD2F1 (CDF1) mice
Conditions: endpoint: median survival time, higher = longer survival
Outline: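 Mice carrying the transplanted tumor received test compound or vehicle. Survival was recorded in each group, and the value is the treated-group measurement divided by that of the vehicle-treated control group.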

[1] = dose: 50.0 mg/kg/injection, schedule: Q01DX009 (ip), vehicle: Klucel (hydroxypropylcellulose) (HPC)
[2] = dose: 100.0 mg/kg/injection, schedule: Q01DX009 (ip), vehicle: Klucel (hydroxypropylcellulose) (HPC)
[3] = dose: 200.0 mg/kg/injection, schedule: Q01DX009 (ip), vehicle: Klucel (hydroxypropylcellulose) (HPC)
[4] = dose: 60.0 mg/kg/injection, schedule: Q01DX005 (ip), vehicle: saline with Tween-80
[5] = dose: 120.0 mg/kg/injection, schedule: Q01DX005 (ip), vehicle: saline with Tween-80
[6] = dose: 240.0 mg/kg/injection, schedule: Q01DX005 (ip), vehicle: saline with Tween-80
[7] = dose: 50.0 mg/kg/injection, schedule: Q01DX009 (ip), vehicle: saline with Tween-80
[8] = dose: 100.0 mg/kg/injection, schedule: Q01DX009 (ip), vehicle: saline with Tween-80
[9] = dose: 200.0 mg/kg/injection, schedule: Q01DX009 (ip), vehicle: saline with Tween-80
[10] = dose: 60.0 mg/kg/injection, schedule: Q01DX005 (ip), vehicle: Klucel (hydroxypropylcellulose) (HPC)
[11] = dose: 120.0 mg/kg/injection, schedule: Q01DX005 (ip), vehicle: Klucel (hydroxypropylcellulose) (HPC)

CC1OC(n2cc(F)c(=O)[nH]c2=O)CC1O (stereo not drawn)
T/C (dose: 50.0 mg/kg/injection, schedule: Q01DX001 (ip), vehicle: saline): 104 % of control
T/C (dose: 100.0 mg/kg/injection, schedule: Q01DX001 (ip), vehicle: saline): 106 % of control
T/C (dose: 200.0 mg/kg/injection, schedule: Q01DX001 (ip), vehicle: saline): 105 % of control

COc1ccc2c(C(=O)O)cc3c4ccccc4ncc3c2c1
T/C (dose: 12.5 mg/kg/injection, schedule: Q01DX009 (ip), vehicle: distilled water + Tween-80): 100 % of control
T/C (dose: 25.0 mg/kg/injection, schedule: Q01DX009 (ip), vehicle: distilled water + Tween-80): 95 % of control
T/C (dose: 50.0 mg/kg/injection, schedule: Q01DX009 (ip), vehicle: distilled water + Tween-80): 98 % of control
T/C (dose: 100.0 mg/kg/injection, schedule: Q01DX009 (ip), vehicle: distilled water + Tween-80): 96 % of control
T/C (dose: 200.0 mg/kg/injection, schedule: Q01DX009 (ip), vehicle: distilled water + Tween-80): 99 % of control

COc1ccc2c(c1)nc1c([n+]2/N=C(\[O-])CCN(C)C)-c2cccc3cccc-1c23
T/C [1]: 110 % of control
T/C [2]: 111 % of control
T/C [3]: 116 % of control

COc1nc2[nH]ccc2c(=O)n1C
T/C [4]: 101 % of control
T/C [5]: 92 % of control
T/C [6]: 89 % of control

O=C(O)c1c(Cl)c(Cl)c(Cl)c(Cl)c1C(=O)Nc1ccc2cn[nH]c2c1
T/C (dose: 50.0 mg/kg/injection, schedule: Q01DX009 (ip), vehicle: saline + alcohol): 101 % of control
T/C (dose: 100.0 mg/kg/injection, schedule: Q01DX009 (ip), vehicle: saline + alcohol): 100 % of control

COc1ccccc1C1=NC(C)(C)CO1
T/C (dose: 50.0 mg/kg/injection, schedule: Q01DX005 (ip), vehicle: saline with Tween-80): 99 % of control
T/C (dose: 100.0 mg/kg/injection, schedule: Q01DX005 (ip), vehicle: saline with Tween-80): 94 % of control
T/C (dose: 200.0 mg/kg/injection, schedule: Q01DX005 (ip), vehicle: saline with Tween-80): 91 % of control

CC1=N/C(=C\c2ccccc2Br)C(=O)O1
T/C (dose: 50.0 mg/kg/injection, schedule: Q01DX005 (ip), vehicle: saline): 114 % of control
T/C (dose: 100.0 mg/kg/injection, schedule: Q01DX005 (ip), vehicle: saline): 119 % of control
T/C (dose: 200.0 mg/kg/injection, schedule: Q01DX005 (ip), vehicle: saline): 119 % of control

C[N+]1=C(/C=C/Nc2cc3c4ccccc4ccc3c3ccccc23)C(C)(C)c2ccccc21
T/C [1]: 117 % of control
T/C [2]: 119 % of control
T/C [3]: 117 % of control

Cc1c(-c2ccc(C3CCCCC3)cc2)nc2ccc(F)cc2c1C(=O)O
T/C (dose: 3.12 mg/kg/injection, schedule: Q01DX005 (ip), vehicle: Klucel (hydroxypropylcellulose) (HPC)): 104 % of control
T/C (dose: 6.25 mg/kg/injection, schedule: Q01DX005 (ip), vehicle: Klucel (hydroxypropylcellulose) (HPC)): 99 % of control
T/C (dose: 12.5 mg/kg/injection, schedule: Q01DX005 (ip), vehicle: Klucel (hydroxypropylcellulose) (HPC)): 110 % of control
T/C (dose: 25.0 mg/kg/injection, schedule: Q01DX005 (ip), vehicle: Klucel (hydroxypropylcellulose) (HPC)): 99 % of control

COC1C(/C=C/C(C)=O)OC2OC(C)(C)OC21 (stereo not drawn)
T/C (dose: 25.0 mg/kg/injection, schedule: Q01DX009 (ip), vehicle: saline): 106 % of control
T/C (dose: 50.0 mg/kg/injection, schedule: Q01DX009 (ip), vehicle: saline): 107 % of control and 112 % of control

CCOC(=O)NC(=S)Nc1ccsc1
T/C [7]: 99 % of control
T/C [8]: 104 % of control
T/C [9]: 102 % of control

CC(=O)[O-].O=C(N/N=C/c1ccccc1[O-])c1ccccc1.[Zn+2]
T/C [4]: 95 % of control
T/C [5]: 106 % of control

CCc1cccc(C)c1N1C(=O)C(=O)C(c2nc3ccccc3o2)/C(=N\NS(=O)(=O)c2ccc(C)cc2)C1=O (stereo not drawn)
T/C [4]: 98 % of control
T/C [5]: 100 % of control
T/C [6]: 97 % of control

CP(=O)(c1ccccc1)c1ccccc1OCCCOCCCOc1ccccc1P(C)(=O)c1ccccc1 (stereo not drawn)
T/C (dose: 50.0 mg/kg/injection, schedule: Q01DX005 (ip), vehicle: Klucel (hydroxypropylcellulose) (HPC)): 99 % of control
T/C (dose: 100.0 mg/kg/injection, schedule: Q01DX005 (ip), vehicle: Klucel (hydroxypropylcellulose) (HPC)): 99 % of control
T/C (dose: 200.0 mg/kg/injection, schedule: Q01DX005 (ip), vehicle: Klucel (hydroxypropylcellulose) (HPC)): 94 % of control

CCSC1(SCC)C(=O)OC2=C(CCCCC2)C1N(C)c1ccccc1 (stereo not drawn)
T/C (dose: 12.5 mg/kg/injection, schedule: Q01DX009 (ip), vehicle: saline with Tween-80): 93 % of control
T/C (dose: 25.0 mg/kg/injection, schedule: Q01DX009 (ip), vehicle: saline with Tween-80): 99 % of control
T/C [7]: 99 % of control

COc1ccccc1N1C(=S)N(c2cccc(Cl)c2Cl)C(=O)C(N=Nc2cccc(Cl)c2Cl)C1O (stereo not drawn)
T/C (dose: 100.0 mg/kg/injection, schedule: Q04DX003 (ip), vehicle: Klucel (hydroxypropylcellulose) (HPC)): 104 % of control
T/C (dose: 200.0 mg/kg/injection, schedule: Q04DX003 (ip), vehicle: Klucel (hydroxypropylcellulose) (HPC)): 104 % of control
T/C (dose: 400.0 mg/kg/injection, schedule: Q04DX003 (ip), vehicle: Klucel (hydroxypropylcellulose) (HPC)): 98 % of control

O=C(Nc1ccc(Cl)cc1)Nc1nnc2nc(C(C(=O)c3ccc(F)cc3)c3nc4nnc(NC(=O)Nc5ccc(Cl)cc5)n4[nH]c3=O)c(=O)[nH]n12
T/C [4]: 103 % of control
T/C [5]: 93 % of control
T/C [6]: 86 % of control

Cc1cc2n(n1)C(C)(C)C(=O)Nc1ccc(Cl)cc1-2
T/C [10]: 96 % of control
T/C [11]: 96 % of control
T/C (dose: 240.0 mg/kg/injection, schedule: Q01DX005 (ip), vehicle: Klucel (hydroxypropylcellulose) (HPC)): 93 % of control

COc1ccc(-c2c(N)cnc(C(=O)O)c2C)c(O)c1OC
T/C (dose: 12.5 mg/kg/injection, schedule: Q01DX009 (ip), vehicle: other): 95 % of control
T/C (dose: 25.0 mg/kg/injection, schedule: Q01DX009 (ip), vehicle: other): 104 % of control
T/C (dose: 50.0 mg/kg/injection, schedule: Q01DX009 (ip), vehicle: other): 112 % of control
T/C (dose: 100.0 mg/kg/injection, schedule: Q01DX009 (ip), vehicle: other): 95 % of control
T/C (dose: 200.0 mg/kg/injection, schedule: Q01DX009 (ip), vehicle: other): 100 % of control

Cc1nc2ccccc2c(=O)n1N1C2CCCC21 (stereo not drawn)
T/C (dose: 50.0 mg/kg/injection, schedule: Q04DX002 (ip), vehicle: Klucel (hydroxypropylcellulose) (HPC)): 103 % of control
T/C (dose: 100.0 mg/kg/injection, schedule: Q04DX002 (ip), vehicle: Klucel (hydroxypropylcellulose) (HPC)): 98 % of control
T/C (dose: 200.0 mg/kg/injection, schedule: Q04DX002 (ip), vehicle: Klucel (hydroxypropylcellulose) (HPC)): 100 % of control

Cn1c2ccccc2c2nnc(N/N=C/c3ccncc3)nc21
T/C (dose: 100.0 mg/kg/injection, schedule: Q04DX002 (ip), vehicle: saline with Tween-80): 88 % of control
T/C (dose: 200.0 mg/kg/injection, schedule: Q04DX002 (ip), vehicle: saline with Tween-80): 88 % of control
T/C (dose: 400.0 mg/kg/injection, schedule: Q04DX002 (ip), vehicle: saline with Tween-80): 99 % of control and 100 % of control

CC1CC(=O)NC(=O)N1 (stereo not drawn)
T/C [7]: 96 % of control
T/C [8]: 102 % of control
T/C (dose: 100.0 mg/kg/injection, schedule: Q04DX003 (ip), vehicle: saline with Tween-80): 97 % of control
T/C [9]: 99 % of control
T/C (dose: 200.0 mg/kg/injection, schedule: Q04DX003 (ip), vehicle: saline with Tween-80): 94 % of control
T/C (dose: 400.0 mg/kg/injection, schedule: Q04DX003 (ip), vehicle: saline with Tween-80): 103 % of control

COc1ccc2cc1-c1cc(ccc1O)CCC(O)CC1CCCC(CC(O)CC2)N1 (stereo not drawn)
T/C (dose: 15.0 mg/kg/injection, schedule: Q01DX009 (ip), vehicle: Klucel (hydroxypropylcellulose) (HPC)): 100 % of control
T/C (dose: 30.0 mg/kg/injection, schedule: Q01DX009 (ip), vehicle: Klucel (hydroxypropylcellulose) (HPC)): 107 % of control

Nc1ncnc2c1c1c(=S)nc[nH]c1n2C1OC(CO)C(O)C1O (stereo not drawn)
T/C (dose: 25.0 mg/kg/injection, schedule: Q01DX009 (ip), vehicle: water): 158 % of control
T/C (dose: 50.0 mg/kg/injection, schedule: Q01DX009 (ip), vehicle: water): 165 % of control
T/C (dose: 100.0 mg/kg/injection, schedule: Q01DX009 (ip), vehicle: water): 177 % of control

COC(=O)c1c2cc(C(C)(C)C)cc-2c(N(C)C)nc(N(C)C)c1C(=O)OC
T/C [10]: 95 % of control
T/C [11]: 95 % of control
